Assay results published in patent US20240301001A1, “PEPTIDE-CONTAINING COMPOSITION” (Kyoto University, priority 2021, published 2024).

Tests used:
[1] = High-fat diet intake after oral administration under overnight fasting; assay type: in vivo; conditions: male mice raised on high-fat diet (60% kcal fat)
Protocol: (§1) Male mice raised on a high-fat diet (60% kcal fat) were orally administered with the digested product under overnight fasting conditions, and the amount of food intake was measured over time (N=14-15). […] The data were analyzed by two-way analysis of variance, followed by multiple comparisons by Tukey's test. […] The error bars represent standard error (n=14-15).
The data were analyzed by two-way analysis of variance, followed by multiple comparisons by Tukey's test. […] The error bars represent standard error (n=9).
as §1, with “Rubisco-derived peptide YHIEPV” for “the digested product”, “(N=11).” for “(N=14-15).”, “the Bonferroni” for “Tukey's”, “(n=11).” for “(n=14-15).”
The data were analyzed by two-way analysis of variance, followed by multiple comparisons by Tukey's test. […] The error bars represent standard error (n=7-8).
The data were analyzed by two-way analysis of variance, followed by multiple comparisons by Tukey's test. In FIG. 10, the error bars represent standard error (n=5-7).

δ opioid receptor = biological target: T1, δ opioid receptor (Mus musculus, UniProt P32300); experiment: Impact of naltrindole on high-fat diet intake suppression induced by oral YHIEPV; assay type: in vivo, mice; conditions: YHIEPV oral plus naltrindole intraperitoneal; food intake 4 hours later
T1 construct: from tissue; host or cells: living male mice (whole animal)
Protocol: (§2) Male mice raised on a high-fat diet (60% kcal fat) were administered under overnight fasting conditions with YHIEPV (oral administration) and naltrindole (intraperitoneal administration), which is a δ opioid receptor inhibitor, or HS024 (intracerebroventricular administration), which is an MC4 receptor inhibitor, and the amount of food intake was measured 4 hours later (N=13-15). The δ opioid receptor and MC4 receptor are receptors involved in feeding behavior. […] The data were analyzed by one-way analysis of variance, followed by multiple comparisons by Tukey's test. […] The error bars represent standard error (n=13-15).

MC4 receptor = biological target: T2, MC4 receptor (Mus musculus, UniProt P56450); experiment: Impact of HS024 on high-fat diet intake suppression induced by oral YHIEPV; assay type: in vivo, mice; conditions: YHIEPV oral plus HS024 intracerebroventricular; food intake 4 hours later
T2 construct: from tissue; host or cells: living male mice (whole animal)
Protocol: as §2

[2] = Long-term oral administration: body weight gain caused by high-fat diet; assay type: in vivo; conditions: 0.3 mg/kg oral once a day, male mice on high-fat diet
Protocol: Male mice raised for at least one month on a high-fat diet (60% kcal fat) were orally administered with YHIEPV (0.3 mg/kg) once a day. The body weight and the amount of food intake were measured daily, and the amount of food intake was calculated as cumulative food intake (N=10). […] The data were analyzed by two-way analysis of variance, followed by multiple comparisons by the Bonferroni test. […] The error bars represent standard error (n=10).

leptin = experiment: Serum leptin level by ELISA after five-week oral administration; assay type: in vivo, mice; conditions: after five-week oral administration 0.3 mg/kg
Protocol: (§3) After the five-week oral administration of YHIEPV in Test Example 4, the blood was collected under anesthesia. Subsequently, the blood was centrifuged, and the serum was collected. The leptin level in the serum was determined by ELISA (according to the manufacturer's protocol) (N=10). The fat mass (peritesticular fat and mesenteric fat) was also measured at the same time as blood sampling (N=9). […] The data were analyzed by t-test. […] The error bars represent standard error (n=9-10).

[3] = Fat mass (peritesticular and mesenteric fat) after five-week oral administration; assay type: in vivo, mice; conditions: after five-week oral administration 0.3 mg/kg
Protocol: as §3

[4] = system: phosphorylated STAT3 signal; experiment: Intracellular leptin sensitivity in hypothalamic organ culture (phosphorylated STAT3 immunostaining); assay type: cell-based; conditions: peptide 100 μM preincubation 24 hours, leptin 30 nM 1 hour
Protocol: Subsequently, formalin fixation was performed and the phosphorylated STAT3 signal was detected by an immunostaining chemistry method (N=6-7). […] The data were analyzed by one-way analysis of variance, followed by multiple comparisons by Tukey's test. […] The error bars represent standard error (n=6-8).

[5] = system: phosphorylated STAT3 signal; experiment: Leptin resistance induced by Forskolin (Rap1 pathway stimulation) in hypothalamic organ culture; assay type: cell-based; conditions: Forskolin 20 μM and YHIEPV 100 μM 6 hours, leptin 60 nM 1 hour
Protocol: A hypothalamic organ culture system was preincubated with Forskolin (20 μM) and YHIEPV (100 μM) for 6 hours, followed by leptin stimulation (60 nM) for 1 hour. Subsequently, formalin fixation was performed and the phosphorylated STAT3 signal was detected by an immunostaining chemistry method (N=6-7). Forskolin is known to induce leptin resistance via the Rap1 activation pathway. […] The data were analyzed by one-way analysis of variance, followed by multiple comparisons by Tukey's test. […] The error bars represent standard error (n=5-9).

[6] = Anti-obesity effect of intracerebroventricularly administered leptin with oral YHIEPV; assay type: in vivo, mice; conditions: YHIEPV 0.3 mg/kg oral, leptin 0.5 μg intracerebroventricular
Protocol: A guide cannula was placed in the lateral ventricle of male mice raised on a high-fat diet (60% kcal fat) for at least one month, and a recovery period of at least 1 week was then provided. Subsequently, the body weight change and the amount of food intake were measured after the addition of YHIEPV (0.3 mg/kg, oral administration) and leptin (0.5 μg, intracerebroventricular administration) (N=10-12). […] The data were analyzed by two-way analysis of variance, followed by multiple comparisons by Tukey's test. […] The error bars represent standard error (n=10-12).

IL-6 = experiment: Hypothalamic gene expression by RT-qPCR after high-fat diet; assay type: in vivo, mice; conditions: hypothalamus, 0.3 mg/kg oral for 5 days
Protocol: (§4) Male mice were raised for at least one month on a high-fat diet (60% kcal fat) and were orally administered with YHIEPV (0.3 mg/kg) for 5 days, and hypothalamic and brain samples were then collected. The expression levels of genes associated with leptin resistance (SOCS-3, PTP1B, and TCPTP) and inflammatory cytokines (IL-6, IL1β, TNFα) in the hypothalamus were measured by RT-qPCR. Active Rap1 in the brain was quantified by using the Active Rap1 Pull-down assay kit and the Detection Kit according to the manufacturer's protocol (N=4). […] The data were analyzed by t-test. […] The error bars represent standard error (n=4).

IL1β = experiment: as above; assay type: in vivo, mice; conditions: hypothalamus, 0.3 mg/kg oral for 5 days
Protocol: as §4

PTP1B = experiment: as above; assay type: in vivo, mice; conditions: hypothalamus, 0.3 mg/kg oral for 5 days
Protocol: as §4

SOCS-3 = experiment: as above; assay type: in vivo, mice; conditions: hypothalamus, 0.3 mg/kg oral for 5 days
Protocol: as §4

TCPTP = experiment: as above; assay type: in vivo, mice; conditions: hypothalamus, 0.3 mg/kg oral for 5 days
Protocol: as §4

TNFα = experiment: as above; assay type: in vivo, mice; conditions: hypothalamus, 0.3 mg/kg oral for 5 days
Protocol: as §4

Active Rap1 = Active Rap1 pull-down assay in brain; assay type: in vivo, mice; conditions: 0.3 mg/kg oral for 5 days
Protocol: as §4

[7] = previously discovered, PTL 2; cited from earlier work

T2 sequence (P56450 whole entry): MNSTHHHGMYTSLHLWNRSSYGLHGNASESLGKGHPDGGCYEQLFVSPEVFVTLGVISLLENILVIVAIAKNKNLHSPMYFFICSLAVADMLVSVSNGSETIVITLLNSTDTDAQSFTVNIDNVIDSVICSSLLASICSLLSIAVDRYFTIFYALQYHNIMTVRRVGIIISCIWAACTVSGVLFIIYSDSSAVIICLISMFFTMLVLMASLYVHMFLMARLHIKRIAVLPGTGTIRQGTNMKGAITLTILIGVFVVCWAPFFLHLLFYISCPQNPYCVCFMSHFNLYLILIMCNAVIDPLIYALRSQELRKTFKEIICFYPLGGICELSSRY
T1 sequence (P32300 whole entry): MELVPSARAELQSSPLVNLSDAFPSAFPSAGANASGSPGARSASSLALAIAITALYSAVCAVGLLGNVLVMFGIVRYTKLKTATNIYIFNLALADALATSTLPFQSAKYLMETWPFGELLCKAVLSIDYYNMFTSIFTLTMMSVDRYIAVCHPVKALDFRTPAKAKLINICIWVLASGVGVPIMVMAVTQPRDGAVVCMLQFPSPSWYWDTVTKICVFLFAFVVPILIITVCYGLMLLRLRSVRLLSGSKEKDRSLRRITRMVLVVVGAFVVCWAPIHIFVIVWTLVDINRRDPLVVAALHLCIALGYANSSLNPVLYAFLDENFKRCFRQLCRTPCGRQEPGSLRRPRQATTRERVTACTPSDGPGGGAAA

**Q.** With YHIEPV (listed as Spinacia oleracea) as the substance, how does the “high-fat diet intake (amount of food intake over time)” value [1] read?
**A.** Its value is “suppressed high-fat diet intake”.

**Q.** And the “effect of suppressing high-fat diet intake in presence of δ opioid receptor inhibitor” value (δ opioid receptor)?
**A.** The value was “inhibited”.

**Q.** What about the “effect of suppressing high-fat diet intake in presence of MC4 receptor inhibitor” value (MC4 receptor) of the same substance?
**A.** The value was “inhibited”.

**Q.** And the “body weight gain caused by a high-fat diet” value [2]?
**A.** Its value is “suppressed body weight gain”.

**Q.** And the blood leptin level (leptin)?
**A.** The blood leptin level was “decreased”.

**Q.** What about the fat mass [3] of the same substance?
**A.** Its fat mass is “trend toward decrease”.

**Q.** And the “intracellular leptin sensitivity in the hypothalamus” value [4]?
**A.** The value was “enhanced”.

**Q.** And the “leptin resistance induced by Forskolin” value [5]?
**A.** The value was “improved”.

**Q.** And the “anti-obesity effect of intracerebroventricularly administered leptin (body weight change, food intake)” value [6]?
**A.** The value was “enhanced”.

**Q.** What about the “expression level of IL-6” value (IL-6) of the same substance?
**A.** Its value is “decreasing trend”.

**Q.** What about the “expression level of IL1β” value (IL1β) of the same substance?
**A.** Its value is “significantly decreased”.

**Q.** What about the “expression level of PTP1B” value (PTP1B) of the same substance?
**A.** The value was “decreasing trend”.

**Q.** And the “expression level of SOCS-3” value (SOCS-3)?
**A.** Its value is “significantly decreased”.

**Q.** What about the “expression level of TCPTP” value (TCPTP) of the same substance?
**A.** Its value is “significantly decreased”.

**Q.** What about the “expression level of TNFα” value (TNFα) of the same substance?
**A.** The value was “decreasing trend”.

**Q.** What about the “expression level of active Rap1” value (Active Rap1) of the same substance?
**A.** The value was “significantly decreased”.

**Q.** And the anxiolytic effect [7]?
**A.** Its anxiolytic effect is “anxiolytic effect”.

**Q.** For “YKLTY (listed as Spinacia oleracea) [Rubisco-derived peptide, synthesized by solid-phase Fmoc method; contained in green leaf Rubisco digested product B]”, which “high-fat diet intake (amount of food intake over time)” value [1] is on record?
**A.** The value was “suppressed high-fat diet intake”.

**Q.** What about the “intracellular leptin sensitivity in the hypothalamus” value [4] of the same substance?
**A.** The value was “enhanced”.
